Results on three compounds are retold here after patent publication US12708608B2, “Methods of treating schizophrenia and other neuropsychiatric disorders” (UNIVERSITY OF ROCHESTER, priority 2018, dated 2026).

Entries after “also recorded” stand apart in the source; their conditions may differ. Where two headings read alike, the source gives them in different places.

Holding throughout (format): cell-based, human
The subject of one experiment is CTR astrocytes. Kind of experiment: Potassium (86Rb) uptake by control-derived astrocytes. The settings on record: 4 CTR lines, drug-treated. As to the method:
(§1) Potassium uptake Astrocytes were plated onto poly-ornithine- and laminin-coated 24-well plates with 30,000 cells/well. For the potassium uptake assay, astrocytes were incubated with ^86Rb (1.0-3.3 uCi/well) for 15 min, and then they were washed three time with ice-cold artificial cerebrospinal fluid (aCSF, 500 μL/well). For cell lysis, 0.5N NaOH (200 μL/well) was put into each well, which was put into 5 ml cocktail liquid (Ultima Gold, Fisher Scientific, 509050575) and measured by scintillation counter (Beckman Coulter, LS6500), and the results were normalized to both total protein (BCA Protein Assay Kit, Fisher Scientific, 23227) and cell number (Hemocytometer, Fisher Scientific, 02-671-54). The aCSF solution contained (in mM) 124 NaCl, 2.5 KCl, 1.75 NaH2PO4, 2 MgCl2, 2 CaCl2, 0.04 Vit.C, 10 glucose and 26 NaHCO3, pH 7.4.
Next, functional K^+ uptake was assessed directly, in cultured SCZ- and CTR-derived astrocytes. To obtain mature SCZ and CTR astrocyte cultures, CD44-sorted astrocyte-biased progenitors were cultured in base media supplemented with 10% fetal bovine serum (FBS) and 20 ng/ml BMP4 for 3 weeks, so as to potentiate the differentiation of mature, glial fibrillary acidic protein (GFAP)-expressing, fiber-bearing astrocytes (FIGS. 5A-5C). […] Astrocytes from 4 different SCZ and 4 different CTR lines were then incubated with ^86Rb, a surrogate monovalent cation for K^+ uptake (Larsen et al., “Contributions of the Na(+)/K(+)-ATPase, NKCC1, and Kir4.1 to Hippocampal K(+) Clearance and Volume Responses,” Glia 62:608-622 (2014), which is hereby incorporated by reference in its entirety), and rubidium uptake measured as a function of both cell number and total protein.

The next experiment has as its system SCZ astrocytes. Kind of experiment: Potassium (86Rb) uptake by schizophrenia-derived astrocytes. The settings on record: 4 SCZ lines, drug-treated. The method, then: as §1, with “The aCSF solution contained (in mM) 124 NaCl, 2.5 KCl, 1.75 NaH2PO4, 2 MgCl2, 2 CaCl2, 0.04 Vit.C, 10 glucose and 26 NaHCO3, pH 7.4.” left out
Next, functional K^+ uptake was assessed directly, in cultured SCZ- and CTR-derived astrocytes. […] Astrocytes from 4 different SCZ and 4 different CTR lines were then incubated with ^86Rb, a surrogate monovalent cation for K^+ uptake (Larsen et al., “Contributions of the Na(+)/K(+)-ATPase, NKCC1, and Kir4.1 to Hippocampal K(+) Clearance and Volume Responses,” Glia 62:608-622 (2014), which is hereby incorporated by reference in its entirety), and rubidium uptake measured as a function of both cell number and total protein.
To test this postulate, lentivirus was used to overexpress REST in CTR glial cells, and K^+ uptake by the transduced cells was assessed.

Experiment [1] has as its system REST-overexpressing CTR astrocytes. As to the kind of experiment: Potassium (86Rb) uptake by CTR astrocytes transduced to over-express REST.
The subject of experiment [2] is REST shRNAi-transduced SCZ astrocytes. As to the kind of experiment: Potassium (86Rb) uptake by SCZ astrocytes with REST knockdown.

For `C[C@@H]1O[C@@H](O[C@H]2C[C@@H](O)[C@]3(CO)[C@H]4[C@H](O)C[C@]5(C)[C@@H](C6=CC(=O)OC6)CC[C@]5(O)[C@@H]4CC[C@]3(O)C2)[C@H](O)[C@H](O)[C@H]1O` [ouabain], the “K+ uptake by CTR astrocytes” value in the experiment with CTR astrocytes is “significantly inhibited; also recorded: efficiently decreased”; with CTR astrocytes (listed as Ouabain) it was “significantly inhibited”. In addition, in the experiment on SCZ astrocytes, the “K+ uptake by SCZ astrocytes” value was “neither ouabain nor bumetanide affected; also recorded: neither affected”. In experiment [1], the “K+ uptake by REST-overexpressing CTR astrocytes” value was “Neither ouabain nor bumetanide further decreased”. For the same compound, in experiment [2], the “K+ uptake by SCZ glia with REST knockdown” value was “significantly reduced; also recorded: significantly inhibited”.

In the case of `CCCCNc1cc(C(=O)O)cc(S(N)(=O)=O)c1Oc1ccccc1` [bumetanide], the “K+ uptake by CTR astrocytes” value with CTR astrocytes is listed as “significantly inhibited; also recorded: efficiently decreased”. In addition, in the experiment with SCZ astrocytes, the “K+ uptake by SCZ astrocytes” value is on record as “neither ouabain nor bumetanide affected; also recorded: neither affected”. For the same compound, the “K+ uptake by REST-overexpressing CTR astrocytes” value in experiment [1] (86Rb uptake, lentiviral-REST transduced CTR astrocytes, drug-treated) is recorded as “Neither ouabain nor bumetanide further decreased”. Besides, the “K+ uptake by SCZ glia with REST knockdown” value in experiment [2] (86Rb uptake, REST shRNAi-transduced SCZ astrocytes, drug-treated) is reported as “significantly reduced; also recorded: significantly inhibited”.

Turning to “tertiapin (ALCNCNRIIIPHMCWKKCGKK; UniProt P56587 1-21, looked up) [drug which targets Kir (inwardly rectifying K+) channels]”, the “K+ uptake by CTR astrocytes” value in the experiment with CTR astrocytes is listed as “did not”.
